Test results as given in patent US5811393A (The Childrens Medical Center Corp., priority 1993, dated 1998).

Key:
[1] = tested on: bovine aortic smooth muscle cells (BASMC); test: Bovine aortic smooth muscle cell proliferation by cell counting; format: cell-based; conditions: cells counted after three days, 1% calf serum
Experimental: Bovine aortic smooth muscle cell proliferation was also assayed by counting cell number following growth factor stimulation. In these experiments, cells were plated sparsely in 24 well plates in DMEM/10% bovine calf serum/1% GPS (100% GPS is glutamine 29.2 mg/ml, penicillin 10,000 units/ml, streptomycin sulfate 10,000 μg/ml; GIBCO, Grand Island, N.Y.) at 10^4 cells/well. Test samples were then added and, after three days, cells were removed by trypsinization and counted in a Coulter counter (Coulter, Hialeah, Fla.).
BASMC were plated in DMEM, 10% calf serum, 100 U/ml penicillin, 100 μg/ml streptomycin sulfate at 5×10^3 cells/well in a 24 well plate, and, after attachment of the cells (e.g., following an overnight incubation), the media was replaced with DMEM, 1% calf serum, and penicillin and streptomycin as above. HB-EHM, recombinant human EGF (Creative Biomolecules, Hopkinton, Mass.), or recombinant PDGF (Creative Biomolecules, Hopkinton, Mass.) was then added to the wells. Cells were counted after three days.

[2] = tested on: EGF receptors on BASMC; test: Competitive [125I]EGF binding to bovine aortic smooth muscle cells; conditions: BASMC
Experimental: Competitive binding assays were used to measure this interaction and were performed as follows.

[3] = tested on: EGF receptor; test: EGF receptor autophosphorylation in A-431 cells (anti-phosphotyrosine Western blot); format: cell-based, human; conditions: 5 ng/ml, 15 minutes
Experimental: This was shown by plating A-431 cells in 6-well plates and culturing in Dulbecco's Modified Eagle's Medium (DMEM) containing 10% fetal bovine serum and antibiotics. […] After 15 minutes, the cells were washed with ice-cold phosphate-buffered saline containing 0.4 mm EDTA, 10 mM Na-fluorate, 10 mM Na-pyrophosphate and 0.4 mM Na-orthovanadate, scraped and lysed in 100 μl of PI/RIPA buffer [1% NP-40 (Pierce, Rockford, Ill.), 1% deoxycholate (Aldrich, Milwaukee, Wis.), 0.1% SDS, 1% aprotinin (Boehringer-Mannheim, Indianapolis, Ind.), 1 mM PMSF (Pierce), 2 mM EDTA (Sigma), 10 mM Na-fluorate, (Sigma, St. Louis, Mo.), 10 mM Na-pyrophosphate (Baker, Phillipsburg, N.J.), 0.4 mM Na-orthovanadate, (Aldrich), 10 mM iodoacetamide (Aldrich) in phosphate buffered saline]. Thirty μl of supernatant clarified by spinning for a 5 minute period in a microfuge was analyzed by reducing SDS/polyacrylamide gel electrophoresis (6% polyacrylamide gel). […] A standard of phosphorylated EGF receptor was purchased from UBI (Lake Placid, N.Y.).

[4] = cited from earlier work
[5] = target: EGF receptor on bovine aortic smooth muscle cells (BASMC) (bovine)
[6] = target: EGF receptor on bovine aortic smooth muscle cells (BASMC) (bovine); remark: listed apart in the source
[7] = tested on: BALB/c mouse 3T3 cells; test: DNA synthesis ([3H]-thymidine incorporation) / proliferation of BALB/c mouse 3T3 cells; format: cell-based; conditions: E. coli-produced protein
Experimental: Conditioned medium was assayed for growth factor activity directly, as described below, using either fibroblasts (i.e., BALB/c mouse 3T3 cells), epithelial cells (i.e., human keratinocytes), or smooth muscle cells (i.e., bovine aortic smooth muscle cells, BASMC). Alternatively, CM was first fractionated by fast protein liquid chromatography (FPLC, Pharmacia, Piscataway, N.J.) by applying 500 ml of the CM to a TSK-heparin 5PW column (8×75 mm, TOSOHAAS, Philadelphia, Pa.). The column was washed with 10 column volumes of equilibration buffer (0.2M NaCl, 0.01M Tris-HCl, pH 7.5), and bound protein was eluted with a 40 ml linear gradient of 0.2-2M NaCl in 0.01M Tris-HCl , pH 7.4 at 1 ml/min. Fractions (2.5 ml) were tested for growth factor activity by measuring the effect of aliquots of the fractions on DNA synthesis in, or the proliferation of, BALB/c mouse 3T3 cells; such activity was monitored by assaying the incorporation of [^3 H]-thymidine into DNA and/or by measuring the increase in cell number. […] One unit of BALB/c mouse 3T3 stimulation activity was defined as the amount of growth factor required to stimulate half-maximal DNA synthesis in BALB/c mouse 3T3 cells under the conditions described in Shing et al. (supra).

EGF: epidermal growth factor, recombinant human, commercial comparator [reference compound]
increase in BASMC proliferation ([1]; 4 ng/ml): 2.5 fold | 50% inhibition of [125I]EGF binding ([2]; 6-well plates): 290 pg/mL | IC50 ([2]; read-out: 50% inhibition of [125I]EGF binding, molar value in brackets): 0.048 nM | autophosphorylation of the EGF receptor (170 kDa protein) [3]: also phosphorylated | binding to heparin ([4]; conditions of the cited references): does not bind heparin to any substantial extent

PDGF
increase in BASMC proliferation ([1]; 500 pg/ml): 2.5 fold | NaCl concentration eluting from immobilized heparin columns ([4]; literature values): 0.5 M

recombinant human EGF (from UniProt P01133) (ligand)
BASMC proliferation (cell count after three days) (fold increase) [5]: 2.5

B1: heparin binding EGF-homologous mitogen (HB-EHM), purified from U-937 conditioned medium, 33 minute peak form (ligand)
chain: RVTLSSKPQALATPNKEEHGKRKKKGKGLGKKRDPCLRKYKDFCIHGECKYVKELRAPSCICHPGYHGERCHGLS
modifications: O-linked glycosylation (suggested by O-glycanase treatment; the threonines predicted at positions 2 and 12 of the form first sequenced were not detected in protein sequencing)
Maximal Stimulation (ng/ml), from 3H-thymidine incorporation into smooth muscle cell DNA, C4 RP-HPLC step [6]: 0.5 ng/mL | BASMC proliferation (cell count after three days) (fold increase) [5]: 2.5

B2: recombinant HB-EHM: HB-EHM produced in E. coli from plasmid pNA28 as CAT fusion, cleaved, refolded and purified (protein)
chain: B1 chain
modifications: O-linked glycosylation (suggested by O-glycanase treatment; the threonines predicted at positions 2 and 12 of the form first sequenced were not detected in protein sequencing)
activity in the BALB/c 3T3 [3H]-thymidine uptake/incorporation assay [7]: active
